According to publication PMC10004634 (PLOS ONE, 2023):
“Also recorded” adds a separate entry of the source.

Test system: TMD8 cells
Test: RT-qPCR of IRF4, BCL6, MYC mRNA
Assay type: cell-based, human
Conditions: 24 h, tirabrutinib 1 μM, BMS-345541 10 μM, MK-2206 1 μM, refametinib 0.1 μM
Procedure: After culturing, total RNA was isolated from cells using the RNeasy Plus Mini Kit (Qiagen), then cDNA was prepared from total RNA using the SuperScript VILO cDNA Synthesis Kit (Invitrogen) following the kit instructions. For quantification of each mRNA expression level, PCR was performed using TaqMan Fast Universal PCR Master Mix (Thermo Fisher Scientific) under the following conditions with the AriaMx Real Time PCR System (Agilent Technologies): 95°C for 3 min, followed by 40 cycles at 95°C for 5 s and 60°C for 20 s with continuous fluorescence measurement. All PCRs were performed in triplicate, and the mRNA expression of GAPDH was used as an internal control. The results (fold changes of the threshold cycle [Ct] relative to the control group) were obtained using the 2^−ΔΔCt method. The TaqMan probes for IRF4 (Assay ID: Hs00180031_m1), BCL6 (Assay ID: Hs00153368_m1), MYC (Assay ID: Hs00153408_m1), and GAPDH (Assay ID: Hs02786624_g1) were purchased from Thermo Fisher Scientific. Statistical tests were performed with the SAS 9.4 (SAS Institute Japan Ltd., Tokyo, Japan) TS1M4-based EXSUS system version 10.1.3 (CAC Corporation, Tokyo, Japan). The t-test or Dunnett test was used to compare mRNA expression in the DMSO- and compound-treated groups. The statistical tests were two-sided with a 5% significance level.

SMILES | IRF4 mRNA expression | MYC mRNA expression
Cc1ccc2nc(NCCN)c3ncc(C)n3c2c1 [BMS-345541] | significant downregulation; also recorded: strongly inhibited | significant downregulation; also recorded: strong inhibition
NC1(c2ccc(-c3nc4ccn5c(=O)[nH]nc5c4cc3-c3ccccc3)cc2)CCC1 [MK-2206] | did not downregulate | did not downregulate
COc1cc(F)c(F)c(Nc2ccc(I)cc2F)c1NS(=O)(=O)C1(C[C@H](O)CO)CC1 [refametinib] |  | tended to downregulate; also recorded: partially downregulated
